Where no end group is shown, it is not given here.
Key:
[1] = test system: OEC (Mn4CaO5 cluster) in PSII; test: Light-induced S2/S1 FTIR difference spectroscopy; assay type: biochemical, spinach; details: peptide:PSII 200:1, pH 6.0, 5 mM CaCl2, 5 mM NaCl, 10 °C, 1800–1200 cm^-1
[2] = test system: PSII; test: Oxygen-evolving activity of reconstituted PSII membranes (Clark-type oxygen electrode); assay type: biochemical, spinach; details: NaCl-washed PSII membranes, peptide:PSII 50:1 to 200:1, 5 mM CaCl2 and 5 mM NaCl, pH 6.5, 0.4 mM DCBQ; membranes without reconstitution = 100% (251 ~ 317 μmol O2 mg Chl^-1 h^-1); n = 3
Experimental: PSII oxygen-evolving activity was measured in the presence of 5 mM CaCl2 and 5 mM NaCl, and the rate of oxygen-evolution of PSII membranes without reconstitution was set at 100% (251 ~ 317 μmol O2 mg Chl^−1 h^−1 in independent experiments); n = 3, error bars = SEM. […] Oxygen-evolving activity here was measured in the presence of 5 mM CaCl2 and 5 mM NaCl, and the rate of oxygen-evolution for the PSII membranes without reconstitution (the control) was set at 100% (261 μmol O2 mg Chl^−1 h^−1).
PSII membranes, isolated from spinach leaves[56], were treated for 30 min with the buffer containing 1.5 M NaCl on ice to remove PsbP and PsbQ. […] In the control, MES buffer, without any peptide fragments, was used. After incubation for 1 h on ice, the reconstituted PSII samples were carried forward to determine the state of their redox forms of Cyt b559, oxygen-evolving activity, FTIR analysis and TL measurements. Where indicated, PSII samples were washed once, before the analysis, with buffer (25 mM MES-NaOH, pH 6.5, 5 mM NaCl, 5 mM CaCl2, 0.4 M sucrose). The oxygen-evolving activity of each PSII membrane sample was measured in this same buffer using a Clark-type oxygen-electrode (Hansatech, UK) in the presence of 0.4 mM 2,6-dichloro-p-benzoquinone (DCBQ) as an electron acceptor.

[3] = test system: Cyt b559 in PSII; test: Redox forms of Cyt b559 by stepwise reductive titration (absorption difference spectroscopy), reconstituted NaCl-washed PSII membranes; assay type: biochemical, spinach
[4] = target: PsbE protein, the α subunit of Cytochrome b559 (spinach (endogenous in PSII membranes from spinach leaves)) (UniProt P69383)

content of the HP form of Cyt b559 in NaCl-washed PSII membranes after reconstitution at 4:1 (PsbP:PSII); about 34% without reconstitution [4] [%] | Substance | S2/S1 FTIR spectral intensity [1] | Rate of oxygen evolution (in words) [2] | Relative content of the HP form of Cyt b559 ([3]; NaCl-washed PSII membranes reconstituted with PsbP proteins at 4:1 or peptides at 200:1 (to PSII), 1 h on ice, 25 mM MES-NaOH pH 6.5, 5 mM NaCl, 5 mM CaCl2, 0.4 M sucrose, 559 nm, total Cyt b559 = 100%, n = 3 (controls: intact 59.3, NaCl-washed 33.7)) [%] | Relative content of the LP form of Cyt b559 ([3]; NaCl-washed PSII membranes reconstituted with PsbP proteins at 4:1 or peptides at 200:1 (to PSII), 1 h on ice, pH 6.5, total Cyt b559 = 100%, n = 3 (controls: intact 8.7, NaCl-washed 10.4)) [%] | Relative content of the IP form of Cyt b559 ([3]; NaCl-washed PSII membranes reconstituted with PsbP proteins at 4:1 or peptides at 200:1 (to PSII), 1 h on ice, pH 6.5, total Cyt b559 = 100%, n = 3 (controls: intact 32.0, NaCl-washed 55.9)) [%] | Restoration of HP Cyt b559 (in words) ([3]; reconstituted NaCl-washed PSII membranes, pH 6.5)
– | pN15-∆A^1: pN15 lacking its N-terminal Ala^1 (YGEAANVFGKPKKN-NH2; UniProt P12302 83-96, looked up, fragment) | moderate inhibitory effect | none of these mutated pN15 fragments showed any inhibitory effect on oxygen evolution | 38.2 | 13.6 | 48.2 | This effect was not observed
58 | recombinant PsbP-WT protein from Spinacia oleracea (from UniProt P12302 82-267) (natural protein) | – | – | – | – | – | –
